Legend:
[1] = Water and lipid solubility of modafinil (observation in background)
mice = conditions: single administration; cited from earlier work
monkeys = conditions: single administration; cited from earlier work

## NC(=O)C[S+]([O-])C(c1ccccc1)c1ccccc1 (stereo not drawn) [modafinil, 2-(benzhydryl-sulfinyl)acetamide]
[1]
  water and lipid solubility: very poor
mice
  locomotor activity: increased locomotor activity
monkeys
  nocturnal activity: increased nocturnal activity
